From patent US20090022806A1, “Nanoparticle and polymer formulations for thyroid hormone analogs, antagonists and formulations and uses thereof” (priority 2006, published 2009)

Key:
[1] = test system: Human dermal micro-vascular endothelial cells (HDMEC); test: Three-dimensional human micro-vascular endothelial sprouting assay; assay type: cell-based
Protocol: In Vitro Three-Dimensional Sprout Angiogenesis of Human Dermal Micro-Vascular Endothelial Cells (HDMEC) Cultured on Micro-Carrier Beads Coated with Fibrin: Confluent HDMEC (passages 5-10) were mixed with gelatin-coated Cytodex-3 beads with a ratio of 40 cells per bead. Cells and beads (150-200 beads per well for 24-well plate) were suspended with 5 ml EBM+15% normal human serum, mixed gently every hour for first 4 hours, then left to culture in a CO2 incubator overnight. The next day, 10 ml of fresh EBM+5% HS were added, and the mixture was cultured for another 3 hours. Before experiments, the culture of EC-beads was checked; then 500 ul of PBS was added to a well of 24-well plate, and 100 ul of the EC-bead culture solution was added to the PBS. The number of beads was counted, and the concentration of EC/beads was calculated.
A fibrinogen solution (1 mg/ml) in EBM medium with or without angiogenesis factors or testing factors was prepared. For positive control, 50 ng/ml VEGF+25 ng/ml FGF2 was used. EC-beads were washed with EBM medium twice, and EC-beads were added to fibrinogen solution. The experiment was done in triplicate for each condition. The EC-beads were mixed gently in fibrinogen solution, and 2.5 ul human thrombin (0.05 U/ul) was added in 1 ml fibrinogen solution; 300 ul was immediately transferred to each well of a 24-well plate. The fibrinogen solution polymerizes in 5-10 minutes; after 20 minutes, we added EBM+20% normal human serum+10 ug/ml aprotinin. The plate was incubated in a CO2 incubator. It takes about 24-48 hours for HDMEC to invade fibrin gel and form tubes.
A micro-carrier in vitro angiogenesis assay previously designed to investigate bovine pulmonary artery endothelial cell angiogenic behavior in bovine fibrin gels [Nehls and Drenckhahn, 1995a, b] was modified for the study of human microvascular endothelial cell angiogenesis in three-dimensional ECM environments (FIGS. 1 and 2). Briefly, human fibrinogen, isolated as previously described [Feng et al, 1999], was dissolved in M199 medium at a concentration of 1 mg/ml (pH 7.4) and sterilized by filtering through a 0.22 micron filter. An isotonic 1.5 mg/ml collagen solution was prepared by mixing sterile Vitrogen 100 in 5×M199 medium and distilled water. The pH was adjusted to 7.4 by 1N NaOH. In certain experiments, growth factors and ECM proteins (such as VEGF, bFGF, PDGF-BB, serum, gelatin, and fibronectin) were added to the fibrinogen or collagen solutions. About 500 EC-beads were then added to the 1 mg/ml fibrinogen or 1.5 mg/ml collagen solutions. Subsequently, EC-beads-collagen or EC-beads-fibrinogen suspension (500 EC-beads/ml) was plated onto 24-well plates at 300 ul/well. EC-bead-collagen cultures were incubated at 37° C. to form gel. The gelling of EC-bead-fibrin cultures occurred in less than 5 minutes at room temperature after the addition of thrombin to a final concentration of 0.5 U/ml. After gelation, 1 ml of fresh assay medium (EBM supplemented with 20% normal human serum for HDMEC or EBM supplemented with 10% fetal bovine serum was added to each well. The angiogenic response was monitored visually and recorded by video image capture. Specifically, capillary sprout formation was observed and recorded with a Nikon Diaphot-TMD inverted microscope (Nikon Inc.; Melville, N.Y.), equipped with an incubator housing with a Nikon NP-2 thermostat and Sheldon #2004 carbon dioxide flow mixer. The microscope was directly interfaced to a video system consisting of a Dage-MTI CCD-72S video camera and Sony 12″ PVM-122 video monitor linked to a Macintosh G3 computer. The images were captured at various magnifications using Adobe Photoshop. The effect of angiogenic factors on sprout angiogenesis was quantified visually by determining the number and percent of EC-beads with capillary sprouts. One hundred beads (five to six random low power fields) in each of triplicate wells were counted for each experimental condition. All experiments were repeated at least three times. […]

[2] = test system: phosphorylated ERK1/2 in ECV304 endothelial cells; test: MAPK (ERK1/2) activation in ECV304 cells, nuclear pERK1/2 immunoblot; assay type: cell-based; details: T4 10^−7 mol/L, 15 minutes to 6 hours
Protocol: ECV304 endothelial cells were cultured in M199 medium with 0.25% hormone-depleted serum 13 for 2 days. […] Nuclear fractions were pre-pared from all samples by our method reported previously, the proteins separated by polyacrylamide gel electrophoresis, and transferred to membranes for immunoblotting with antibody to phosphorylated ERK 1/2.

[3] = hormone 0.1 uM alone, pretreated FGF2 1.25 ng/ml + VEGF […], day 3

## N[C@@H](Cc1cc(I)c(Oc2cc(I)c(O)c(I)c2)c(I)c1)C(=O)O [T4, L-thyroxine]
[1]; 0.01-0.1 μM
  stimulation of angiogenesis: significant (P<0.01) stimulation of angiogenesis
[1]; FGF2 25 ng + VEGF 50 ng, T3 20 ng, T4 23 ng, T4-agarose 23 ng, pre-treated with FGF2 1.25 ng/ml + VEGF […]
  Mean Tube Vessel Length (mm) ± SD: 1.65 ± 0.15 mm
[1]; [3]
  Mean number of Migrated cells ± SD: 182 ± 11
  Mean vessel Length (mm) ± SD: 1.16 ± 0.21 mm
[2]
  time of maximal phosphorylation and nuclear translocation of ERK1/2: 30 min
